Laboratory results as given in US8461360B2, “Process for producing γ -mangostin” (Laila Nutraceuticals, priority 2008, dated 2013).

Key:
[1] = DPPH free radical scavenging activity; format: biochemical; details: methanolic DPPH solution
Method: DPPH free radical scavenging activity was measured by the method of Lamaison, et al., (Pharma Acta Helv. 1991; 66:185) based on the reduction of colored methanolic solution of the DPPH. Free radical scavenging ability of each test substances added to the methanolic solution of DPPH was inversely proportional to the difference in initial and final absorption of DPPH solution at […] Antioxidant activity is expressed as the 50% inhibitory concentration (IC50). The reaction mixture contained 1×10^−4 mM methanolic solution of DPPH and various concentrations of the test substances. Percentage inhibition was determined by comparing the absorbance values of test and control tubes. The IC50 values were obtained from the plot drawn of the concentration (μg) verses percentage inhibition.

[2] = Superoxide radical scavenging activity (NBT method); format: biochemical; details: riboflavin/NBT, 560 nm
Method: Superoxide radical scavenging activity of test substances was determined by the method of McCord and Fridovich (J. Biol. Chem., 244, 6049, 1969). The assay mixture contained EDTA (6.6 mM containing 3 μg NaCN), riboflavin (2 μM), NBT (50 μM), phosphate buffer (67 mM, pH 7.8) in a final volume of 3 mL and various concentrations of test substances. The tubes were mixed well and optical densities were measured at 560 nm. The tubes were uniformly illuminated with an incandescent lamp for 15 min. and the optical densities were measured again at 560 nm. The percentage inhibition of superoxide radical generation was measured by comparing the absorbance values of control and those of the test substances. The IC50 values were obtained from the plot drawn of the concentration (μg) verses percentage inhibition.

[3] = system: Freund Complete Adjuvant induced arthritis; assay: Freund Complete Adjuvant induced arthritis model, paw edema; format: in vivo, Sprague Dawley rats; details: prednisolone 10 mg/kg body weight for 14 days, positive control; vs CMC control
Method: The anti-inflammatory efficacies of α-mangostin and γ-mangostin were evaluated by an in vivo study in Freund Complete Adjuvant induced arthritis model of Sprague Dawley rats. The rats of either sex were randomly selected and divided into […] containing five animals in each group. The treatment group rats were supplemented with 25 mg/kg body weight of α-mangostin or γ-mangostin, or prednisolone (10 mg/kg body weight) for 14 days. The animals of control group received similar volume of 1% CMC only. At the 14 th day, Freund Complete Adjuvant (FCA) was injected subcutaneously in the sub-plantar region of the left hind paw of each animal. At the end of experiment, the animals were sacrificed and liver tissue samples were excised and stored in aliquot at −80° C. Blood samples were collected from each animal at a regular interval and paw volumes were measured by Plethysmography equipment at the day of FCA injection and after 13 days of FCA inoculation. The difference in volume of edema at the day of FCA injection and at 13th day after induction is considered as the inflammatory response. The in vivo anti-inflammatory response of α-mangostin, γ-mangostin and prednisolone was estimated by calculating the percentage of inhibition of paw edema when compared with the CMC supplemented control.

[4] = system: aP2 (Adipocyte fatty acid binding protein); assay: Down-regulation of aP2 protein expression in LPS induced THP-1 derived macrophages (Western blot); format: cell-based, human; details: 5 μg/ml pre-treatment 2 h, LPS 100 ng/ml 16 h, normalized with actin
Method: Down-regulation of aP2 protein expression by γ-mangostin and α-mangostin was evaluated in a cell based in vitro model. Briefly, equal number of THP-1 monocyte cells were plated in 40 mm tissue culture petri-dishes and the cells were differentiated to macrophages by treatment with 10 nM Phorbol myristate acetate (PMA) for 24 h. The attached cells in the culture dishes were washed with serum free and phenol red free DMEM; and the differentiated macrophage cells were pre-treated for 2 h with 5 μg/ml of either γ-mangostin or α-mangostin or 0.1% DMSO in serum free DMEM supplemented with 2% BSA. Thereafter, the cells were primed with 100 ng/ml of LPS for 16 h to induce the inflammatory response. The 0.1% DMSO treated cells without LPS treatment were considered as vehicle control. […] The protein content was measured by Coomassie blue based Bradford method and equal amount of cellular protein lysates (2 μg) was resolved in 15% SDS-Polyacrylamide gels. […] The aP2 protein expression was specifically detected by chemiluminescent substrate (Pierce, USA); detection of chemiluminescent bands and densitometric analyses were carried out on Kodak 4000 MM image station (supplied by Kodak, USA). The same nitrocellulose blots were stripped and re-probed with anti-actin antibody (Sigma Chemical CO, USA) and actin protein expression was recorded as an indication of equal protein loading in each, lane. […]

[5] = target: potato 5-lipoxygenase; assay: 5-Lipoxygenase enzyme inhibitory activity; format: biochemical; details: 80 μM linoleic acid, pH 6.3, absorbance 234 nm
Method: 5-Lipoxygenase enzyme inhibitory activity was measured using the method of Schewe, et. al. (Adv Enzymol, Vol 58: pp 191-272, 1986), that was modified by Reddanna, et. al., (Methods of Enzymology, Vol 187: pp 268-277, 1990). The assay mixture contained 80 μM linoleic acid and sufficient amount of potato 5-lipoxygenase in 50 mM phosphate buffer (pH 6.3). The reaction was initiated by the addition of enzyme buffer mix to linoleic acid and the enzyme activity was monitored as the increase in absorbance at 234 nm. The reaction was monitored for 120 sec and the inhibitory potential of the test substances was measured by incubating various concentrations of test substances α-mangostin and γ-mangostin two minutes before the addition of linoleic acid. All assays were performed three times. The IC50 values were calculated from the plot drawn of the concentrations of test substances versus percentage inhibition.

[6] = system: IKK; details: Biochem. Pharmacol. reference; cited from earlier work

Structure (SMILES)	DPPH method IC50 [1] [µg/mL]	NBT method IC50 [2] [µg/mL]	inhibition of paw edema [3] [%]	inhibition of aP2 protein expression [4]	5-Lipoxygenase inhibitory activity IC50 values [5] [µg/mL]	inhibition of IKK activity [6]
O=C1O[C@H]([C@@H](O)CO)C(O)=C1O [Vitamin C]	3.7	123.6				
C[C@]12C=CC(=O)C=C1CC[C@@H]1[C@@H]2[C@@H](O)C[C@@]2(C)[C@H]1CC[C@]2(O)C(=O)CO [prednisolone]			54			
COc1c(O)cc2oc3cc(O)c(CC=C(C)C)c(O)c3c(=O)c2c1CC=C(C)C [α-Mangostin, 1,3,6-trihydroxy-7-methoxy-2,8-bis-(3-methyl-but-2-only) -xanthen-9-one]	>100	61.8		inhibition of aP2 protein expression	2.7	
CC(C)=CCc1c(O)cc2oc3cc(O)c(O)c(CC=C(C)C)c3c(=O)c2c1O [γ-Mangostin, 2,8-bis[(2E)-3-methylbut-2-only)-1,3,6,7-tetrahydroxyxanthen-9-one]	9.7	8.7		more potent inhibitor of aP2 in vitro compared to α-mangostin	0.5	directly inhibits IKK activity
